Each structure is given as a SMILES string.

Data set [1] in a line: Drug metabolism in pH 7.4 PBS assessed as compound hydrolysis after 24 hrs by HPLC method. The data set is classed as physicochemical. The note with it: read-out: Drug metabolism.
A short description of data set [2]: Inhibition of bovine brain tubulin polymerization preincubated for 15 mins followed by GTP addition measured after 20 mins by Spectrophotometric method. More on the design: species or system Bos taurus.
The species entered for data set [3] is Bos taurus. As to the kind of experiment: Inhibition of [3H]colchicine binding to bovine brain tubulin at 5 uM after 10 mins by scintillation counting method relative to control.
Data set [4] addresses T1, NADPH--cytochrome P450 reductase (P450 oxidoreductase) (Rattus norvegicus, UniProt P00388).
T1 sequence (P00388 whole entry): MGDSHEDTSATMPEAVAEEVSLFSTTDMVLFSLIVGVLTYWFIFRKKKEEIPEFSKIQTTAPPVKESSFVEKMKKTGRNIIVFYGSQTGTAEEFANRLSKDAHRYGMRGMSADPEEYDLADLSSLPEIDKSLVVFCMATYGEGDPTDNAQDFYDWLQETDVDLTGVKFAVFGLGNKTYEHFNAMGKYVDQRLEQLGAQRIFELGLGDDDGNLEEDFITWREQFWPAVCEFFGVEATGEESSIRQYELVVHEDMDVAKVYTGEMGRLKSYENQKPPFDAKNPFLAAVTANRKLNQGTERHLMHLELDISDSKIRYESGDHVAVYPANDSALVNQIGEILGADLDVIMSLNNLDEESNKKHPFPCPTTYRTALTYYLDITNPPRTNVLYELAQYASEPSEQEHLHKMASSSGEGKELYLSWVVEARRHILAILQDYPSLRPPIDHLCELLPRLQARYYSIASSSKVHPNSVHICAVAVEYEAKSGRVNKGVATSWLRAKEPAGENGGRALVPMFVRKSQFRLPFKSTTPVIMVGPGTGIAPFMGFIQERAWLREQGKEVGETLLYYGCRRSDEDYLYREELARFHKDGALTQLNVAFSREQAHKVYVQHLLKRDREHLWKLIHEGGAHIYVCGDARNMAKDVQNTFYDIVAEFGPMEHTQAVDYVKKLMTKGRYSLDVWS
As to the kind of experiment: Drug metabolism in pH 7.4 PBS assessed as rat P450 oxidoreductase-mediated compound hydrolysis preincubated for 20 mins followed by protocatechuate 3,4-dioxygenase addition to create anoxic condition and subsequent addition of P450 oxidoreductase in presence of NADPH after 24 hrs by HPLC method. Type of data set: ADME. Conditions: rat P450 oxidoreductase with NADPH in PBS, read-out: Drug metabolism.

The term IC50 denotes the concentration needed to halve the response being measured. One may read the inhibition as the relative decrease from the control value, in per cent. Read a high inhibition as a response far below the control. Regarding `COc1ccc(C(=O)c2cc(OC)c(OC)c(OC)c2)cc1OC(C)(C)c1ccc([N+](=O)[O-])s1`, the degraded at 24 h in data set [1] stood at 0%. Moreover, in data set [2], the half-maximal inhibitory concentration (IC50) stood at 9 µM. In addition, the inhibition in data set [3] is 16%. For the same compound, the metabolised at 24 h in data set [4] was found to be 100%.
Take `COc1ccc(C(=O)c2cc(OC)c(OC)c(OC)c2)cc1OC(C)(C)c1ccc([N+](=O)[O-])o1`: in data set [1], the degraded at 24 h is 0%. This compound displayed an IC50 in data set [2] above 20 µM. In data set [3], this compound displayed an inhibition of 13%. The metabolised at 24 h in data set [4] is 100%.
In turn, `COc1ccc(C(=O)c2cc(OC)c(OC)c(OC)c2)cc1OC(C)c1cnc([N+](=O)[O-])n1C` (stereo unspecified) displayed an IC50 in data set [2] above 20 µM. For the same compound, the inhibition in data set [3] was 11%.
The corresponding values for `COc1ccc(C(=O)c2cc(OC)c(OC)c(OC)c2)cc1OC(C)c1ccc([N+](=O)[O-])s1` (stereo unspecified) are above 20 µM and 15%.
For `COc1ccc(C(=O)c2cc(OC)c(OC)c(OC)c2)cc1OCc1ccc([N+](=O)[O-])cc1` the same measures were above 20 µM and 11%.
Consider `COc1ccc(C(=O)c2cc(OC)c(OC)c(OC)c2)cc1OCc1ccc([N+](=O)[O-])o1`, for which, in data set [2], the IC50 worked out at 15 µM. In data set [3], this compound had an inhibition of 17%.
In turn, `COc1ccc(C(=O)c2cc(OC)c(OC)c(OC)c2)cc1OC(C)c1ccc([N+](=O)[O-])cc1` (stereo unspecified) had an IC50 in data set [2] above 20 µM. The inhibition in data set [3] is 5.8%.
Turning to `COc1ccc(C(=O)c2cc(OC)c(OC)c(OC)c2)cc1OC(C)(C)c1ccc([N+](=O)[O-])cc1`, the degraded at 24 h in data set [1] was determined as 0%. In addition, in data set [2], the half-inhibitory concentration (IC50) was above 20 µM. In addition, in data set [3], the inhibition stood at 8.8%. In addition, the metabolised at 24 h in data set [4] was found to be 0%.
With `COc1ccc(C(=O)c2cc(OC)c(OC)c(OC)c2)cc1OCc1ccc([N+](=O)[O-])s1`, inhibition in data set [2] was half-maximal at 16 µM (IC50). The same compound yielded an inhibition in data set [3] of 19%.
For the compound `COc1ccc(C(=O)c2cc(OC)c(OC)c(OC)c2)cc1OCc1cnc([N+](=O)[O-])n1C`, the IC50 in data set [2] is above 20 µM. Further, the inhibition in data set [3] is 7.1%.
For the compound `COc1ccc(C(=O)c2cc(OC)c(OC)c(OC)c2)cc1O` [PHENSTATIN], in data set [2], the IC50 turned out to be 1 µM. Besides, the inhibition in data set [3] was found to be 85%.
The compound `COc1ccc(/C=C\c2cc(OC)c(OC)c(OC)c2)cc1O` [COMBRETASTATIN A4] registered an IC50 in data set [2] of 0.73 µM.
In turn, `COc1ccc(C(=O)c2cc(OC)c(OC)c(OC)c2)cc1OC(C)c1ccc([N+](=O)[O-])o1` (stereo unspecified) registered an IC50 in data set [2] of 12 µM. The compound further had an inhibition in data set [3] of 16%.

(Values after ChEMBL document CHEMBL4041538, “Bioreductively activatable prodrug conjugates of phenstatin designed to target tumor hypoxia” (Bioorg Med Chem Lett, 2017).)
